Laboratory results published in US20170319532A1, “METHODS AND FORMULATIONS FOR TREATMENT AND/OR PREVENTION OF BLOOD-ASSOCIATED DISORDERS” (TWi Biotechnology, Inc., priority 2016, published 2017).

Tested on: hemophilic arthropathy rat model (knee joint swelling)
Test: Joint swelling in rat hemophilic arthropathy model induced by intraarticular injection of whole blood
Format: in vivo, female Lewis rats
Details: for % change of joint swelling: left vs right knee oval area, p<0.05
Protocol: A total of 8 female Lewis rats were used for hemophilia arthropathy (HA) study. The animals were specific pathogen free and approximately 6 to 7 weeks old upon start dosing.
Animals were randomized into 2 groups on Day 1 and started to receive diacerein or vehicle treatments throughout the study of 10 days. On Day 4 and Day 8, treatment was performed 1 hour before HA model induction. For HA induction, under anesthesia with 1.5-5% isoflurane (inhalation anesthesia machine, Matrix vip 3000 isoflurane), blood was collected from orbital sinus of each rat and immediately, 0.1 ml of whole blood was intraarticular injected into the cavity of left knee using syringe with 27G needle. The blood was anti-coagulated with EDTA-2K. Body weight and joint swelling measurement were assessed 4 hours post-dosing every day.
The longitudinal and transverse axes of both knee joints were measured with calipers on Day 1 (pre-dose), Day 4 (pre-dose), and Day 4-10 (4 hours post-dose). The oval area of knee joints and % change of joint swelling was calculated using the following formula:
Oval area=longitudinal axis×transverse axis×3.14×0.25% change of joint swelling=(Oval area left−Oval area right)/Oval area right×100%

In the case of CC(=O)Oc1cccc2c1C(=O)c1c(OC(C)=O)cc(C(=O)O)cc1C2=O [diacerein, 4,5-bis (acetyloxy) 9,10-dihydro-4,5-dihydroxy-9,10-dioxo-2-anthracenecarboxylic acid], the “% change of joint swelling” value (Day 8, the second hemophilia arthropathy induction, vehicle 22.57±3.77%) was 10.02±3.54%, the “% change of joint swelling” value (Day 10, end of the study, vehicle 13.51±4.78%) was 0.50±3.28% and the “joint swelling (qualitative)” value (hemophilic arthropathy rat model, compared with vehicle) was “suppressed joint swelling”.
